These are literature values, as cited in publication PMC11949389 (Polish Journal of Microbiology, 2025).

The MIC is the smallest concentration in the dilution series that meets the test's criterion for growth inhibition. As usually defined, the MIC90 is the lowest concentration that inhibits either 90% of growth or 90% of the strains tested, depending on the study. Usually IC50 stands for the concentration at which inhibition is half-maximal. The term EC50 denotes the concentration giving half of the maximal effect.

Converted amounts (≈) assume the structure as drawn. Like-named read-outs stand apart in the source and are kept apart here.

Data set [1] deals with Staphylococcus aureus. Particulars: for MIC: S. aureus; for MIC/Sensitivity: Staphylococcus aureus, ref Kwiatkowski et al. 2020, Sayout et al. 2020, Sousa Silveira et al. 2020, Macêdo et al. 2022, Noumi et al. 2023, Sharma et al. 2023.
Data set [2] has as its system Methicillin-resistant Staphylococcus aureus. The note with it: in combination with penicillin G, MRSA isolates; ref Kwiatkowski et al. (2020).
For data set [3], the system named is Mupirocin-susceptible Staphylococcus aureus. The note with it: ref Kwiatkowski et al. 2019.
Data set [4] deals with Mupirocin-resistant Staphylococcus aureus. The note with it: ref Kwiatkowski et al. 2019.
In another data set the test system is Acinetobacter baumannii. The note with it: for MIC/Sensitivity: ref Sayout et al. 2020.
For the next data set, the system named is Enterobacter aerogenes. The note with it: ref Sayout et al. 2020.
The test system of another data set is Enterobacter cloacae. The note with it: ref Sayout et al. 2020.
The test system of the next data set is Klebsiella oxytoca. Particulars: ref Sayout et al. 2020.
For another data set, the system named is Klebsiella pneumoniae. Particulars: ref Sayout et al. 2020, de Souza et al. 2021, Kwiatkowski et al. 2022.
The subject of a further data set is Salmonella spp. Particulars: ref Sayout et al. 2020.
Data set [5] concerns Vibrio anguillarum, and Vibrio harveyi. The note with it: ref Rossi et al. (2021).
In a further data set the test system is Enterococcus sp. Particulars: ref Caballero Gómez et al. 2022.
For the next data set, the system named is Staphylococcus sp. Particulars: ref Caballero Gómez et al. 2022.
The test system of another data set is Streptococcus suis. Particulars: ref de Aguiar et al. 2019.
A further data set concerns Malassezia pachydermatis. The note with it: ref Schlemmer et al. 2019, Sim et al. 2019.
A further data set deals with Pseudomonas sp. Particulars: ref Caballero Gómez et al. 2022.
In the next data set the test system is Vibrio anguillarum. Particulars: ref Rossi et al. 2021.
Another data set has as its system Vibrio harveyi. The note with it: ref Rossi et al. 2021.
The subject of data set [6] is Enterococcus, Pseudomonas, and Staphylococcus strains. The note with it: ref Caballero Gómez et al. (2022).
Data set [7] concerns Vancomycin-sensitive Enterococcus (VSE).
For data set [8], the system named is Vancomycin-resistant Enterococcus (VRE). The note with it: vancomycin-resistant enterococci strains; ref Owen et al. (2019).
Data set [9] relates to Methicillin-susceptible Staphylococcus aureus. The note with it: ref Owen et al. 2019.
Data set [10] deals with Ciprofloxacin-resistant Escherichia coli. Particulars: resistant E. coli strains; ref Owen et al. (2019).
The test system of data set [11] is amphotericin B-resistant C. albicans. Particulars: varying among Candida isolates; ref Touil et al. (2020).
For data set [12], the system named is bacteria co-isolated with C. albicans. Particulars: ref Touil et al. (2020).
The subject of data set [13] is C. albicans and co-isolated bacteria. Particulars: carvacrol combined with cuminaldehyde; ref Touil et al. (2020).
The test system of data set [14] is Ciprofloxacin-resistant Pseudomonas aeruginosa. The note with it: resistant P. aeruginosa strains; ref Owen et al. (2019).
Data set [15] relates to Candida albicans. Particulars: Candida albicans; ref Sharifzadeh et al. 2019; Iraji et al. 2020; Shaban et al. 2020; Stringaro et al. 2022; Biernasiuk et al. 2022.
For data set [16], the system named is Candida auris. The note with it: Candida auris; ref Shaban et al. 2020.
Data set [17] deals with Candida albicans. Particulars: ref Shaban et al. 2020.
Data set [18] relates to Candida auris. The note with it: ref Shaban et al. 2020.
The subject of data set [19] is Staphylococcus pseudintermedius. Particulars: Staphylococcus pseudintermedius; ref Sim et al. 2019.
The test system of data set [20] is β-haemolytic Streptococcus spp. Particulars: ref Sim et al. 2019.
In another data set the test system is Campylobacter jejuni. Particulars: for MIC/Sensitivity: Campylobacter jejuni, ref Šimunović et al. 2020; for MIC: ref Šimunović et al. (2020).
The next data set has as its system Proteus mirabilis. Particulars: ref Sim et al. 2019.
The test system of a further data set is Candida glabrata. The note with it: Candida glabrata; ref Sharifzadeh et al. 2019; Iraji et al. 2020; Biernasiuk et al. 2022; Stringaro et al. 2022.
For a further data set, the system named is Candida krusei. Particulars: Candida krusei; ref Sharifzadeh et al. 2019; Iraji et al. 2020; Biernasiuk et al. 2022; Stringaro et al. 2022.
Another data set deals with Candida tropicalis. The note with it: Candida tropicalis; ref Iraji et al. 2020; Stringaro et al. 2022.
In the next data set the test system is Salmonella Thyphimurium. Particulars: ref Giovagnoni et al. 2020.
A further data set deals with staphylococcal isolates. The note with it: ref Sim et al. 2019.
A further data set deals with Salmonella Typhimurium. Particulars: ref Giovagnoni et al. (2020).
A further data set concerns Candida species. The note with it: ref Stringaro et al. (2022).
For the next data set, the system named is HIV-1. The note with it: HIV-1; ref Mediouni et al. (2020).
A further data set has as its system TetK efflux pump. The note with it: S. aureus, ref Sousa Silveira et al. (2020).
The test system of data set [21] is Chikungunya virus (CHIKV). The note with it: ref Kumar et al. (2021).
The subject of data set [22] is Staphylococcus aureus. Particulars: ref Mastoor et al. 2022.

Regarding `CC12CCC(CC1)C(C)(C)O2` [1,8-Cineole], in the data set on Staphylococcus aureus [1] (ref Kwiatkowski et al. (2020)), the MIC was 28,800– 57,600 μg/ml. Further, the MIC/Sensitivity with Staphylococcus aureus [1] is 0.00563 to 115.1 mg/mL; in data set [3] it was 307 mg/mL (≈ 1990 mM); in data set [4] it was 57.56 mg/mL (≈ 373 mM); in the data set on Acinetobacter baumannii it was 0.00563 mg/mL (≈ 0.0365 mM); in the data set on Enterobacter aerogenes, 0.00281 mg/mL (≈ 0.0182 mM); in the data set on Enterobacter cloacae, 0.00563 mg/mL (≈ 0.0365 mM). Besides, the MIC/Sensitivity with Escherichia coli (Escherichia coli, ref Owen et al. 2019, Sayout et al. 2020, Noumi et al. 2023) was 0.00281 mg/mL (≈ 0.0182 mM); in the data set with Klebsiella oxytoca, 0.00563 mg/mL (≈ 0.0365 mM); with Klebsiella pneumoniae it was 0.01125 mg/mL (≈ 0.0729 mM); with Salmonella spp., 0.0075 mg/mL (≈ 0.0486 mM). Further, in data set [2], the FICI is recorded as 0.1. Besides, the “activity at the tested concentrations” value in data set [5] is recorded as “no activity”.
Regarding `O=C/C=C/c1ccccc1` [Cinnamaldehyde], the MIC/Sensitivity with Enterococcus sp. was 0.01 to 0.05 mg/mL; in the data set on Staphylococcus sp., 0.01 to 0.05 mg/mL; in the data set on Streptococcus suis, 0.15625 to 0.3125 mg/mL; in the data set on Malassezia pachydermatis, 0.0025 to 0.64 mg/mL; in the data set on Pseudomonas sp., 0.01 to 0.05 mg/mL; with Vibrio anguillarum, 555.75 mg/mL (≈ 4210 mM). Also, the MIC/Sensitivity with Vibrio harveyi is 278.616 mg/mL (≈ 2110 mM). The MIC in [6] is 0.01 to 0.05 mg/mL; in data set [5], 0.94 to 7.5 mM.
Regarding `CC(C)c1ccc(C=O)cc1` [Cuminaldehyde], the MIC in data set [7] (vancomycin-susceptible enterococci (VSE), ref Owen et al. (2019)) is 134.41 mM (≈ 19900 µg/mL); in data set [8] it was 537.65 mM (≈ 79700 µg/mL); in data set [10] it was 8.40 mM (≈ 1240 µg/mL); in the data set with Escherichia coli (antibiotic-sensitive E. coli, ref Owen et al. (2019)) it was 2.10 mM (≈ 311 µg/mL); in [11], 2 to 4 mg/mL; in [12] it was 1,000–4,000 μg/ml. In addition, in data set [9], the MIC/Sensitivity is 4979.52 mg/mL (≈ 33600 mM). For the same compound, the MIC in combination in data set [13] is 500–2,000 μg/ml.
Regarding `C=CC(C)(O)CCC=C(C)C` (centres unmarked) [Linalool], the “reduction in vancomycin’s MIC” value in [7] (binary combinations with vancomycin, VSE, ref Owen et al. (2020)) is recorded as “four to eight-fold reduction”. The MIC/Sensitivity in the data set with Staphylococcus aureus [1] is 0.00288 to 6.8 mg/mL; in [3] it was 6.8 mg/mL (≈ 44.1 mM); in data set [4] it was 2.83 mg/mL (≈ 18.3 mM); in the data set on Acinetobacter baumannii it was 0.00144 mg/mL (≈ 0.00934 mM); in the data set on Enterobacter aerogenes, 0.00144 mg/mL (≈ 0.00934 mM); with Enterobacter cloacae, 0.00192 mg/mL (≈ 0.0124 mM). The MIC/Sensitivity in the data set on Klebsiella oxytoca is 0.00144 mg/mL (≈ 0.00934 mM); in the data set on Klebsiella pneumoniae, 0.00383 mg/mL (≈ 0.0248 mM); in the data set on Salmonella spp. it was 0.00288 mg/mL (≈ 0.0187 mM). Moreover, the MIC in data set [14] is given as 912.90 mM (≈ 141000 µg/mL); in the data set on Pseudomonas aeruginosa (antibiotic-sensitive P. aeruginosa, ref Owen et al. (2019)), 228.20 mM (≈ 35200 µg/mL). Moreover, the “activity at the tested concentrations” value in data set [5] is given as “no activity”.
Turning to `C=CCc1ccc(OC)c(OC)c1` [Methyl eugenol], the MIC/Sensitivity in the data set with Candida albicans [15] and in the data set with Candida auris [16] was 1.25 mg/mL (≈ 7.01 mM) each time. The Mechanisms of action result is “• Reduced proteinase production” with Candida albicans [17]; “• Reduced proteinase production and host cell adherence” with Candida auris [18].
For `Cc1ccc(C(C)C)c(O)c1` [Thymol], the MIC/Sensitivity with Enterococcus sp. is 0.2 to 0.45 mg/mL; with Staphylococcus sp., 0.2 to 0.4 mg/mL; with Staphylococcus aureus [1], 0.072 to 0.8 mg/mL; in data set [19], 0.1 to 0.2 mg/mL; in [20] (β-haemolytic Streptococcus spp.), 0.2 to 0.4 mg/mL; with Streptococcus suis, 0.15625 mg/mL (≈ 1.04 mM). Besides, the MIC/Sensitivity in the data set with Campylobacter jejuni was 0.03125 mg/mL (≈ 0.208 mM); in the data set on Klebsiella pneumoniae it was 0.78 mg/mL (≈ 5.19 mM); in the data set on Malassezia pachydermatis, 0.01 to 0.8 mg/mL; with Proteus mirabilis, 0.2 mg/mL (≈ 1.33 mM); in the data set on Pseudomonas sp., 0.1 to 0.3 mg/mL; in the data set with Pseudomonas aeruginosa (Pseudomonas aeruginosa, ref Owen et al. 2019, Sim et al. 2019, Noumi et al. 2023) it was 0.4 to 0.8 mg/mL. Also, the MIC/Sensitivity in the data set with Candida albicans [15] is 0.195 to 0.625 mg/mL; in the data set with Candida auris [16], 0.312 mg/mL (≈ 2.08 mM); with Candida glabrata, 0.39 mg/mL (≈ 2.6 mM); with Candida krusei, 0.39 mg/mL (≈ 2.6 mM); with Candida tropicalis, 0.39 mg/mL (≈ 2.6 mM). In addition, the MIC was 125 to 250 µg/mL with Staphylococcus aureus [1] (ref Sharma et al. (2023)); 72 µg/mL (≈ 0.479 mM) in the data set with Staphylococcus aureus [1] (ref Sousa Silveira et al. (2020)); 0.03125 mg/mL (≈ 0.208 mM) in the data set with Campylobacter jejuni; 0.312 mg/mL (≈ 2.08 mM) with Candida auris [16]; 0.94 to 7.5 mM in data set [5]; 1.87 mM (≈ 281 µg/mL) in the data set with Salmonella Typhimurium. Further, the minimal inhibitory concentration (MIC) with Candida species is 0.195 to 0.39 mg/mL. For the same compound, the MIC90 in [20] (β-hemolytic Streptococcus) was 0.292 to 0.4 mg/mL; in the data set on Proteus mirabilis, 0.2 to 0.292 mg/mL; in the data set with Pseudomonas aeruginosa (P. aeruginosa, ref Sim et al. 2019), 0.8 mg/mL (≈ 5.33 mM); in the data set on staphylococcal isolates it was 0.146 to 0.2 mg/mL. Besides, the FICI in the data set with Acinetobacter baumannii (combined with ciprofloxacin, ref Aleksic Sabo et al. (2021)) is 0.25–0.32. Moreover, the Mechanisms of action entry in the data set with Salmonella Thyphimurium was “• Anti-inflammatory effects • Anti-oxidant properties • Enhanced epithelial barrier integrity • Reduction of bacterial translocation • Improved transepithelial electrical resistance • Inhibited bacterial growth”; in the data set on Candida albicans [17], “• Reduced proteinase production”; in the data set with Candida auris [18], “• Reduced proteinase production and host cell adherence”. The 50% inhibitory concentration (IC50) with HIV-1 was 25.2 µM. Besides, the efflux pump inhibition result in the data set on TetK efflux pump is given as “did not act as efflux pump inhibitors”.
In the case of `CC1=CC(=O)C(C(C)C)=CC1=O` [Thymoquinone], in the data set with Campylobacter jejuni, the MIC/Sensitivity is 0.03125 mg/mL (≈ 0.19 mM) and the MIC is 0.03125 mg/mL (≈ 0.19 mM). Besides, in data set [21] (CHIKV replication), the EC50 was 4.48 µM. The “reduction of CHIKV titer” value in data set [21] (plaque reduction assay, 20 μM) is “over 90%”.
Turning to `O=CC(Br)=Cc1ccccc1` [α-Bromo-trans-cinnamaldehyde], the Mechanisms of action result in the data set on Staphylococcus aureus [22] is “• Gene expression reduction linked to intracellular adhesion”.
